Reference: PubChem BioAssay (NCI)
Where “and” joins values, the source holds several entries; their conditions need not be identical. Identical values can stand only once.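 Following 48 hours of exposure in 96-well plates, responses at five concentrations were used to interpolate endpoints linearly. GI50 = concentration required for 50% inhibition of growth. TGI: total growth inhibition.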

Key:
Test in all cases: NCI anticancer screen, dose series, 48 h; in the data active = GI50 below about 0.43 µM; inactive = the rest
COLO 205 colon = test system: COLO 205 colon
DLD-1 colon = test system: DLD-1 colon
M19-MEL melanoma = test system: M19-MEL melanoma
KM12 colon = test system: KM12 colon
CCRF-CEM leukemia = test system: CCRF-CEM leukemia
HOP-18 NSCLC = test system: HOP-18 NSCLC
DMS 273 small cell lung = test system: DMS 273 small cell lung
K-562 leukemia = test system: K-562 leukemia
HCT-116 colon = test system: HCT-116 colon
SK-MEL-2 melanoma = test system: SK-MEL-2 melanoma
RPMI-8226 leukemia = test system: RPMI-8226 leukemia
UACC-257 melanoma = test system: UACC-257 melanoma
HOP-62 NSCLC = test system: HOP-62 NSCLC
HT29 colon = test system: HT29 colon
SNB-19 CNS = test system: SNB-19 CNS
NCI-H460 lung = test system: NCI-H460 lung
ACHN renal = test system: ACHN renal
EKVX NSCLC = test system: EKVX NSCLC
M14 melanoma = test system: M14 melanoma
OVCAR-5 ovarian = test system: OVCAR-5 ovarian
786-0 renal = test system: 786-0 renal
OVCAR-8 ovarian = test system: OVCAR-8 ovarian
SNB-75 CNS = test system: SNB-75 CNS
SF-295 CNS = test system: SF-295 CNS
SK-MEL-5 melanoma = test system: SK-MEL-5 melanoma
MALME-3M melanoma = test system: MALME-3M melanoma
NCI-H226 lung = test system: NCI-H226 lung
SF-539 CNS = test system: SF-539 CNS
NCI-H522 lung = test system: NCI-H522 lung
SN12C renal = test system: SN12C renal
SW-620 colon = test system: SW-620 colon
HCT-15 colon = test system: HCT-15 colon
SF-268 CNS = test system: SF-268 CNS
KM20L2 colon = test system: KM20L2 colon
SK-OV-3 ovarian = test system: SK-OV-3 ovarian
HCC-2998 colon = test system: HCC-2998 colon
NCI-H23 lung = test system: NCI-H23 lung
UO-31 renal = test system: UO-31 renal
CAKI-1 renal = test system: CAKI-1 renal
A549 NSCLC = test system: A549 NSCLC
A498 renal = test system: A498 renal
MOLT-4 leukemia = test system: MOLT-4 leukemia
OVCAR-4 ovarian = test system: OVCAR-4 ovarian
IGROV1 ovarian = test system: IGROV1 ovarian
UACC-62 melanoma = test system: UACC-62 melanoma
XF 498 CNS = test system: XF 498 CNS
SNB-78 CNS = test system: SNB-78 CNS
HL-60(TB) leukemia = test system: HL-60(TB) leukemia
SR leukemia = test system: SR leukemia
HOP-92 NSCLC = test system: HOP-92 NSCLC
TK-10 renal = test system: TK-10 renal
DMS 114 small cell lung = test system: DMS 114 small cell lung
SK-MEL-28 melanoma = test system: SK-MEL-28 melanoma
OVCAR-3 ovarian = test system: OVCAR-3 ovarian
LOX IMVI melanoma = test system: LOX IMVI melanoma
LXFL 529 NSCLC = test system: LXFL 529 NSCLC
U251 CNS = test system: U251 CNS
RXF 393 renal = test system: RXF 393 renal

CC1COS(=O)O1 (stereo unspecified)
> 100 µM: TGI (COLO 205 colon) | TGI (DLD-1 colon) | TGI (M19-MEL melanoma) | TGI (KM12 colon) | TGI (CCRF-CEM leukemia) | TGI (HOP-18 NSCLC) | TGI (DMS 273 small cell lung) | TGI (K-562 leukemia) | TGI (HCT-116 colon) | TGI (SK-MEL-2 melanoma) | TGI (RPMI-8226 leukemia) | TGI (UACC-257 melanoma) | TGI (HOP-62 NSCLC) | TGI (HT29 colon) | TGI (SNB-19 CNS) | TGI (NCI-H460 lung) | TGI (ACHN renal) | TGI (EKVX NSCLC) | TGI (M14 melanoma) | TGI (OVCAR-5 ovarian) | TGI (786-0 renal) | TGI (OVCAR-8 ovarian) | TGI (SNB-75 CNS) | TGI (SF-295 CNS) | TGI (SK-MEL-5 melanoma) | TGI (MALME-3M melanoma) | TGI (NCI-H226 lung) | TGI (SF-539 CNS) | TGI (NCI-H522 lung) | TGI (SN12C renal) | TGI (SW-620 colon) | TGI (HCT-15 colon) | TGI (SF-268 CNS) | TGI (KM20L2 colon) | TGI (SK-OV-3 ovarian) | TGI (HCC-2998 colon) | TGI (NCI-H23 lung) | TGI (UO-31 renal) | TGI (CAKI-1 renal) | TGI (A549 NSCLC) | TGI (A498 renal) | TGI (MOLT-4 leukemia) | TGI (OVCAR-4 ovarian) | TGI (IGROV1 ovarian) | TGI (UACC-62 melanoma) | TGI (XF 498 CNS) | TGI (SNB-78 CNS) | TGI (HL-60(TB) leukemia) | TGI (SR leukemia) | TGI (HOP-92 NSCLC) | TGI (TK-10 renal) | TGI (DMS 114 small cell lung) | TGI (SK-MEL-28 melanoma) | TGI (OVCAR-3 ovarian) | TGI (LOX IMVI melanoma)

CCc1cccc(C)c1NC(=O)CC1C(=O)Nc2ccccc2S1=O (stereo unspecified)
74.9 µM: TGI (HL-60(TB) leukemia)
90.4 µM: TGI (KM20L2 colon)
55.4 µM: TGI (U251 CNS)
97.6 µM: TGI (SF-295 CNS)
> 100 µM: TGI (COLO 205 colon) | TGI (DLD-1 colon) | TGI (LXFL 529 NSCLC) | TGI (KM12 colon) | TGI (DMS 273 small cell lung) | TGI (K-562 leukemia) | TGI (HCT-116 colon) | TGI (SK-MEL-2 melanoma) | TGI (RPMI-8226 leukemia) | TGI (HOP-62 NSCLC) | TGI (HT29 colon) | TGI (SNB-19 CNS) | TGI (NCI-H460 lung) | TGI (ACHN renal) | TGI (M14 melanoma) | TGI (OVCAR-5 ovarian) | TGI (786-0 renal) | TGI (OVCAR-8 ovarian) | TGI (SNB-75 CNS) | TGI (MALME-3M melanoma) | TGI (NCI-H226 lung) | TGI (NCI-H522 lung) | TGI (SN12C renal) | TGI (SW-620 colon) | TGI (HCT-15 colon) | TGI (SF-268 CNS) | TGI (HCC-2998 colon) | TGI (NCI-H23 lung) | TGI (UO-31 renal) | TGI (CAKI-1 renal) | TGI (A549 NSCLC) | TGI (MOLT-4 leukemia) | TGI (OVCAR-4 ovarian) | TGI (XF 498 CNS) | TGI (SNB-78 CNS) | TGI (SR leukemia) | TGI (HOP-92 NSCLC) | TGI (TK-10 renal) | TGI (SK-MEL-28 melanoma) | TGI (OVCAR-3 ovarian) | TGI (LOX IMVI melanoma)
79.2 µM: TGI (SF-539 CNS)
86.5 µM: TGI (UACC-257 melanoma)

Cc1ccc2[c](c1)[Sn]([c]1ccccc1)([c]1ccccc1)[c]1cc(C)ccc1N2C
29.6 µM: TGI (LOX IMVI melanoma)
53.7 µM: TGI (SW-620 colon)
31.8 µM: TGI (RXF 393 renal)
inactive: GI50 (COLO 205 colon) 23.1 µM | GI50 (LXFL 529 NSCLC) 26.6 µM | GI50 (M19-MEL melanoma) 37.7 µM | GI50 (KM12 colon) 29.8 µM | GI50 (HOP-18 NSCLC) > 100 µM | GI50 (DMS 273 small cell lung) 44.5 µM | GI50 (HCT-116 colon) 20.9 µM | GI50 (SK-MEL-2 melanoma) 11.2 µM | GI50 (UACC-257 melanoma) 57.8 µM | GI50 (HOP-62 NSCLC) > 100 µM | GI50 (HT29 colon) 37.3 µM | GI50 (SNB-19 CNS) > 100 µM | GI50 (NCI-H460 lung) 51.2 µM | GI50 (RXF 393 renal) 11.3 µM | GI50 (ACHN renal) 66.8 µM | GI50 (EKVX NSCLC) 41.4 µM | GI50 (M14 melanoma) 80.5 µM | GI50 (OVCAR-5 ovarian) 70.3 µM | GI50 (786-0 renal) 16.2 µM | GI50 (OVCAR-8 ovarian) 57.3 µM | GI50 (SNB-75 CNS) > 100 µM | GI50 (SF-295 CNS) > 100 µM | GI50 (U251 CNS) 87.5 µM | GI50 (SK-MEL-5 melanoma) 33.2 µM | GI50 (MALME-3M melanoma) 31.8 µM | GI50 (NCI-H226 lung) 49 µM | GI50 (SF-539 CNS) > 100 µM | GI50 (NCI-H522 lung) 21.8 µM | GI50 (SN12C renal) > 100 µM | GI50 (SW-620 colon) 18.9 µM | GI50 (HCT-15 colon) 36.9 µM | GI50 (SF-268 CNS) 48.4 µM | GI50 (KM20L2 colon) > 100 µM | GI50 (SK-OV-3 ovarian) > 100 µM | GI50 (HCC-2998 colon) 26.4 µM | GI50 (NCI-H23 lung) 41 µM | GI50 (UO-31 renal) > 100 µM | GI50 (A549 NSCLC) > 100 µM | GI50 (OVCAR-4 ovarian) 41.6 µM | GI50 (IGROV1 ovarian) 58.7 µM | GI50 (UACC-62 melanoma) 20.9 µM | GI50 (XF 498 CNS) 63.6 µM | GI50 (SNB-78 CNS) 46.2 µM | GI50 (HOP-92 NSCLC) 5.58 µM and 15.7 µM | GI50 (TK-10 renal) > 100 µM | GI50 (DMS 114 small cell lung) 28.7 µM | GI50 (SK-MEL-28 melanoma) 64.5 µM | GI50 (OVCAR-3 ovarian) 37.9 µM | GI50 (LOX IMVI melanoma) 13.2 µM
90.7 µM: TGI (MALME-3M melanoma)
51.9 µM: TGI (SK-MEL-2 melanoma)
> 100 µM: TGI (LXFL 529 NSCLC) | TGI (M19-MEL melanoma) | TGI (KM12 colon) | TGI (HOP-18 NSCLC) | TGI (DMS 273 small cell lung) | TGI (HCT-116 colon) | TGI (UACC-257 melanoma) | TGI (HOP-62 NSCLC) | TGI (HT29 colon) | TGI (SNB-19 CNS) | TGI (NCI-H460 lung) | TGI (ACHN renal) | TGI (EKVX NSCLC) | TGI (M14 melanoma) | TGI (OVCAR-5 ovarian) | TGI (786-0 renal) | TGI (OVCAR-8 ovarian) | TGI (SNB-75 CNS) | TGI (SF-295 CNS) | TGI (U251 CNS) | TGI (SK-MEL-5 melanoma) | TGI (NCI-H226 lung) | TGI (SF-539 CNS) | TGI (NCI-H522 lung) | TGI (SN12C renal) | TGI (HCT-15 colon) | TGI (SF-268 CNS) | TGI (KM20L2 colon) | TGI (SK-OV-3 ovarian) | TGI (HCC-2998 colon) | TGI (NCI-H23 lung) | TGI (UO-31 renal) | TGI (A549 NSCLC) | TGI (OVCAR-4 ovarian) | TGI (IGROV1 ovarian) | TGI (UACC-62 melanoma) | TGI (XF 498 CNS) | TGI (SNB-78 CNS) | TGI (HOP-92 NSCLC) | TGI (TK-10 renal) | TGI (DMS 114 small cell lung) | TGI (SK-MEL-28 melanoma) | TGI (OVCAR-3 ovarian)
52.2 µM: TGI (COLO 205 colon)
active: GI50 (SR leukemia) 0.116 µM
